Source: ChEMBL document CHEMBL5365395, “Optimization of a series of novel, potent and selective Macrocyclic SYK inhibitors” (Bioorg Med Chem Lett, 2023)

Columns and labels:
[1] = target: Tyrosine-protein kinase SYK (Homo sapiens, UniProt P43405); test: Inhibition of full length recombinant human SYK
[2] = Intrinsic clearance in rat hepatocytes assessed per million cells; format: ADME, cell-based, Hepatocyte; conditions: read-out: CLH
[3] = Intrinsic Clearance in human liver microsome; format: ADME; conditions: liver microsomes, read-out: CLH
[4] = Apparent permeability across apical to basolateral side in human Caco-2 cells at pH 6.5 after 45 to 120 mins by LC-MS/MS analysis; format: ADME, cell-based; conditions: Caco-2, pH 6.5, time 45-120 min
[5] = target: Voltage-gated inwardly rectifying potassium channel KCNH2 (Homo sapiens, UniProt Q12809); test: Inhibition of human ERG by patch clamp assay; format: toxicity
Chain of Voltage-gated inwardly rectifying potassium channel KCNH2 (Q12809 whole entry): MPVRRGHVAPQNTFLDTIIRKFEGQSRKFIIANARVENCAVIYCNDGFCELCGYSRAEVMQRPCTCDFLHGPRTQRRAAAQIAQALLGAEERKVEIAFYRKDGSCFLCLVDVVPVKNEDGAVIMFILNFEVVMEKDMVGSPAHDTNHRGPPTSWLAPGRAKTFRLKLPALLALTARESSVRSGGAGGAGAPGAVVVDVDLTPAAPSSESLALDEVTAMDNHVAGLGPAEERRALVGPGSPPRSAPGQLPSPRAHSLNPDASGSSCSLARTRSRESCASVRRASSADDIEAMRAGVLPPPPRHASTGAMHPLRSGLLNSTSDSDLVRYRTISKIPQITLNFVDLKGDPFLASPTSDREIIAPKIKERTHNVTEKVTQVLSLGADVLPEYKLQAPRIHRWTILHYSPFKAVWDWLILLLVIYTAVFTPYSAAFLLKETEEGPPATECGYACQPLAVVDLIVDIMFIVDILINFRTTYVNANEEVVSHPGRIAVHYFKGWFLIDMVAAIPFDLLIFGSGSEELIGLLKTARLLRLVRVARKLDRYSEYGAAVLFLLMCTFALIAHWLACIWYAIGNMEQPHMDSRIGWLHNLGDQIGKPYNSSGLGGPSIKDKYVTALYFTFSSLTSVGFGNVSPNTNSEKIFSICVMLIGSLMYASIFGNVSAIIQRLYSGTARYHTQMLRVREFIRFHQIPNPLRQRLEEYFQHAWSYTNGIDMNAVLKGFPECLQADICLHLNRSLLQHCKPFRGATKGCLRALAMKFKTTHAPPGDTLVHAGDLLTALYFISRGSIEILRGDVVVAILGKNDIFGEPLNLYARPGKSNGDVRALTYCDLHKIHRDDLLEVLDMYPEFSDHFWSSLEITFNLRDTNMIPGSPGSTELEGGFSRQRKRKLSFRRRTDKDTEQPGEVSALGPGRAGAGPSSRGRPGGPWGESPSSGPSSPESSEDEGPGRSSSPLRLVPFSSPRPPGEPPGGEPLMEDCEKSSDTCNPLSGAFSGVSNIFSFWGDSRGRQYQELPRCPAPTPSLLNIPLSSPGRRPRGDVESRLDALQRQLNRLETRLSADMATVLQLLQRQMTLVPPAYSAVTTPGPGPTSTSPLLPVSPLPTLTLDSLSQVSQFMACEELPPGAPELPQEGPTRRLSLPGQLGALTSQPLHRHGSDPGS

SUD4 = test: Cytotoxicity against human SU-DHL-4 cells assessed as reduction in cell viability
[6] = Lipophilicity, logD of the compound in buffer/octanol volume ratio of 100:1 at pH 7.4 by shake flask method; format: physicochemical
[7] = Clearance in Han-Wistar rat at 1 umol/kg, iv; format: ADME; conditions: in vivo, dose 1 µmol/kg
[8] = Oral bioavailability in Han-Wistar rat at 2 umol/kg; format: ADME, organism-based; conditions: in vivo, at 2 µmol/kg
[9] = Volume of distribution at steady state in Han-Wistar rat at 1 umol/kg, iv; format: ADME; conditions: in vivo, dose 1 µmol/kg, read-out: Vdss
[10] = Plasma protein binding in Han-Wistar rat assessed as fraction unbound; format: ADME, cell-free
[11] = Intrinsic clearance in Han-Wistar rat hepatocytes; format: ADME, cell-based, Hepatocyte
[12] = target: Mitogen-activated protein kinase kinase kinase 9 (Homo sapiens) (UniProt P80192); test: Inhibition of MAP3K9 (unknown origin) at 0.1 uM relative to control
Chain of Mitogen-activated protein kinase kinase kinase 9 (Homo sapiens) (P80192 whole entry, looked up): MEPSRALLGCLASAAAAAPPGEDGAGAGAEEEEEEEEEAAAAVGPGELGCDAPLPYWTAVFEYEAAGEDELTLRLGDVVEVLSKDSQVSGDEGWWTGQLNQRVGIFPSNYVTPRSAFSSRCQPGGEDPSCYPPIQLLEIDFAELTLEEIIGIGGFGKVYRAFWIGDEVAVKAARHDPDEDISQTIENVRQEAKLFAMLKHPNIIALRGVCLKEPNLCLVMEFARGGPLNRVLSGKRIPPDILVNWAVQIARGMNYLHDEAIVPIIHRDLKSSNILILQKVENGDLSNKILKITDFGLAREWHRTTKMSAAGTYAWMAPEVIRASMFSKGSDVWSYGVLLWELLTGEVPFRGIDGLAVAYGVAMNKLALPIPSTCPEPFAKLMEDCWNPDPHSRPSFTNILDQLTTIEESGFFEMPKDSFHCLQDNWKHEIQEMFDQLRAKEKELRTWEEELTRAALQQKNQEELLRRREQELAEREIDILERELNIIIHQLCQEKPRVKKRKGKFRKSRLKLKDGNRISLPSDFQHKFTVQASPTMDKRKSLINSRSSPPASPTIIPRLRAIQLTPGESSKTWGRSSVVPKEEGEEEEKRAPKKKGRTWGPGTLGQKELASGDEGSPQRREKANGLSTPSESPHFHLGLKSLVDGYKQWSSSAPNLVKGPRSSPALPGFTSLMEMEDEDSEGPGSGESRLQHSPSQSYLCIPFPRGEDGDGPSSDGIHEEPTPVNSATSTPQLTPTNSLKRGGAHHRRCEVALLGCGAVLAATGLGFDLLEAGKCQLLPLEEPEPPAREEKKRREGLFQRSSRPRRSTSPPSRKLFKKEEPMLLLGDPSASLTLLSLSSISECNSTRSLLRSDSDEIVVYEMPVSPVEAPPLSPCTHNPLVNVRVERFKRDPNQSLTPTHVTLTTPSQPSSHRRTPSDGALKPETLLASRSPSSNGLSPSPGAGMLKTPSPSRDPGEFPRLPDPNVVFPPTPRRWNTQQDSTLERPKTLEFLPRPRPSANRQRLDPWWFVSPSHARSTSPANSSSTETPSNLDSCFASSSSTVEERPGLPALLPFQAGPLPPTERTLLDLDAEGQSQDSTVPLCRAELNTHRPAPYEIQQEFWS

[13] = Clearance in Beagle Dog at 1 umol/kg, iv; format: ADME, Canis lupus familiaris; conditions: in vivo, dose 1 µmol/kg
[14] = Volume of distribution at steady state in Beagle Dog at 1 umol/kg, iv; format: ADME, Canis lupus familiaris; conditions: in vivo, dose 1 µmol/kg, read-out: Vdss
[15] = Oral bioavailability in Beagle Dog at 2 umol/kg; format: ADME, organism-based, Canis lupus familiaris; conditions: in vivo, at 2 µmol/kg
[16] = Intrinsic clearance in Beagle Dog hepatocytes; format: ADME, cell-based, Canis lupus familiaris, Hepatocyte
[17] = Hydrolytic stability of the compound at pH 1 assessed as half life; format: physicochemical; conditions: buffer
[18] = Hydrolytic stability of the compound at pH 7.4 assessed as half life; format: physicochemical; conditions: buffer
[19] = Hydrolytic stability of the compound at pH 10 assessed as half life; format: physicochemical; conditions: buffer

| SMILES | hepatocyte CLint [2] [µL/min/1e6 cells] | microsomal CLint [3] [µL/min/mg] | Papp A→B [4] [×10⁻⁶ cm/s] | IC50 [5] [nM] | IC50 (SUD4) [nM] | logD [6] | other results |
| --- | --- | --- | --- | --- | --- | --- | --- |
| Cc1nn2cc1CN(C)CCOCCNC(=O)c1nn(C)c3ccc(cc13)Nc1nccc-2n1 | 8.1 | 25 | 19 | 850 | 570 | 1.8 | IC50 [1]: 0.13 nM; clearance [7]: 16 mL/min/kg; bioavailability [8]: 64%; Vd [9]: 1.9 L/kg; Fu [10]: 7%; CLH [11]: 8.1 µL/min/1e6 cells; inhibition [12]: > 70% |
| Cc1nn2cc1CN(C)CCOCCNC(=O)c1nn(CCO)c3ccc(cc13)Nc1nccc-2n1 | < 1.6 | 23 | 1.12 | > 39000 | 280 | 1.2 | clearance [7]: 33 mL/min/kg; bioavailability [8]: 0.9%; Vd [9]: 2.1 L/kg; Fu [10]: 16%; CLH [11]: < 1.5 µL/min/1e6 cells; clearance [13]: 9 mL/min/kg; Vd [14]: 1.9 L/kg; bioavailability [15]: 0.38%; CLH [16]: < 1 µL/min/1e6 cells |
| Cc1nn2cc1CN(C)CCCCCNC(=O)c1nn(C)c3ccc(cc13)Nc1nccc-2n1 | 12 | 44 | – | – | 2200 | 2.7 | – |
| CNC(=O)c1nn(C)c2ccc(Nc3nccc(-n4cc(CN(C)C)c(C)n4)n3)cc12 | – | – | – | – | 240 | – | – |
| Cc1nn2cc1CN(C)N1CC(CNC(=O)c3nn(C)c4ccc(cc34)Nc3nccc-2n3)C1 | 27 | 18 | – | – | 1200 | 1.2 | – |
| CC(=O)OCCn1nc2c3cc(ccc31)Nc1nccc(n1)-n1cc(c(C)n1)CN(C)CCOCCNC2=O | 198 | > 300 | 3.6 | 2100 | 990 | 1.9 | half-life [17]: 0.7 h; half-life [18]: 6.8 h; half-life [19]: < 0.5 h |
| Cc1nn2cc1CN(C)CCOCCNC(=O)c1nn(C[C@H](C)O)c3ccc(cc13)Nc1nccc-2n1 | 6.5 | 34 | – | > 22000 | 390 | 1.3 | – |
| Cc1nn2cc1CN(C)CCOCCNC(=O)c1nn(C3COC3)c3ccc(cc13)Nc1nccc-2n1 | 4.6 | 28 | 3.7 | 3700 | 550 | 1.7 | – |
| Cc1nn2cc1CN(C)CCOCCNC(=O)c1nn(CC(C)(C)O)c3ccc(cc13)Nc1nccc-2n1 | 3.4 | 52 | – | 8000 | 480 | 1.6 | – |
| Cc1nn2cc1CN(C)CCOCCNC(=O)c1nn(C[C@@H](C)O)c3ccc(cc13)Nc1nccc-2n1 | 4.4 | 39 | – | 22000 | 260 | 1.4 | – |
| Cc1nn2cc1CN(C)CCOCCNC(=O)c1nn(CCOC(=O)C(C)(C)C)c3ccc(cc13)Nc1nccc-2n1 | 163 | > 300 | 8 | 1100 | 1000 | 3.1 | half-life [17]: > 100 h; half-life [18]: 30 h; half-life [19]: 5 h |
| Cc1nn2cc1CN(C)N1CCC(CCNC(=O)c3nn(C)c4ccc(cc34)Nc3nccc-2n3)CC1 | 15 | 76 | – | – | 350 | 2.3 | – |
| Cc1nn2cc1CN(C)N1CCC(O)(CCNC(=O)c3nn(C)c4ccc(cc34)Nc3nccc-2n3)CC1 | 2.1 | 28 | 1.9 | 8800 | 100 | 1.6 | – |
| CC(=O)OC(C)(C)Cn1nc2c3cc(ccc31)Nc1nccc(n1)-n1cc(c(C)n1)CN(C)CCOCCNC2=O | 63 | 229 | 13 | 1200 | 850 | 2.5 | half-life [17]: 6.5 h; half-life [18]: 72 h; half-life [19]: 2.9 h |
